Molecular target: T1, human GnRH receptor (Homo sapiens, UniProt P30968)
T1 sequence (P30968 1-328): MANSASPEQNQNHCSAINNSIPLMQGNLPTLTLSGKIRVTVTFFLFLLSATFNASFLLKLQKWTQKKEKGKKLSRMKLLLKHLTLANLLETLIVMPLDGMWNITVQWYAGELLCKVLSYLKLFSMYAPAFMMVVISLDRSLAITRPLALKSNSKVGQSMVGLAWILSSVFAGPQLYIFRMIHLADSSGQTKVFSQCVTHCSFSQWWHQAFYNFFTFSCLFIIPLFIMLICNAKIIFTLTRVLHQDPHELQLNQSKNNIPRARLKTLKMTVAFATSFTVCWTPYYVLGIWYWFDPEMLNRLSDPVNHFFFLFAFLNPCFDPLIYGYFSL
Experiment: IP-One HTRF assay with buserelin (at EC80) stimulation
Type: cell-based
Details: CHO cells stably expressing human GnRH receptor, read-out: Potency in IP-One HTRF assay, given as IC50
How it was run: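 CHO cells stably expressing human GnRH receptor, preincubated 1 h at 37° C with IP1-d2, were exposed to compound and buserelin at EC80 for 1 h at 37° C. After lysis with Tb-anti-IP1 antibody (1 h, 22° C), 665/620 nm HTRF ratio read; 10 concentrations, 20 μM–1 nM, duplicates, 4-parameter IC50.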

SMILES	IC50
N#Cc1cccc(S(=O)(=O)N2c3ccc(C(=O)Nc4ncco4)cc3C3(CCS(=O)(=O)CC3)C2C2CC2)c1 (centres unmarked) [Example 78, 1-[(3-cyanophenyl)sulfonyl]-2-cyclopropyl-N-(1,3-oxazol-2-yl)-1,2,2′,3′,5′,6′-hexahydrospiro[indole-3,4′-thiopyran]-5-carboxamide 1′,1′-dioxide]	706 nM
N#Cc1cccc(S(=O)(=O)N2c3ccc(C(=O)NCc4ncccc4C(F)(F)F)cc3C3(CCS(=O)(=O)CC3)C2C2CC2)c1 (centres unmarked) [Example 79, 1-[(3-cyanophenyl)sulfonyl]-2-cyclopropyl-N-{[3-(trifluoromethyl)pyridin-2-yl]methyl}-1,2,2′,3′,5′,6′-hexahydrospiro[indole-3,4′-thiopyran]-5-carboxamide 1′,1′-dioxide]	64 nM
N#Cc1cccc(S(=O)(=O)N2c3ccc(C(=O)Nc4ccon4)cc3C3(CCS(=O)(=O)CC3)C2C2CC2)c1 (centres unmarked) [Example 80, 1-[(3-cyanophenyl)sulfonyl]-2-cyclopropyl-N-(1,2-oxazol-3-yl)-1,2,2′,3′,5′,6′-hexahydrospiro[indole-3,4′-thiopyran]-5-carboxamide 1′,1′-dioxide]	218 nM
O=C(NCc1ccccc1Cl)c1ccc2c(c1)C1(CCS(=O)(=O)CC1)C(C1CC1)N2S(=O)(=O)c1cccc(OC(F)(F)F)c1 (centres unmarked) [Example 81, N-(2-chlorobenzyl)-2-cyclopropyl-1-{[3-(trifluoromethoxy)phenyl]sulfonyl}-1,2,2′,3′,5′,6′-hexahydrospiro[indole-3,4′-thiopyran]-5-carboxamide 1′,1′-dioxide]	437 nM
COC(=O)c1cccc(NC(=O)c2ccc3c(c2)C2(CCS(=O)(=O)CC2)C(C2CC2)N3S(=O)(=O)c2cccc(OC(F)(F)F)c2)c1 (centres unmarked) [Example 82, methyl 3-{[(2-cyclopropyl-1′,1′-dioxido-1-{[3-(trifluoromethoxy)phenyl]sulfonyl}-1,2,2′,3′,5′,6′-hexahydrospiro[indole-3,4′-thiopyran]-5-yl)carbonyl]amino}benzoate]	609 nM
O=C(O)c1cccc(NC(=O)c2ccc3c(c2)C2(CCS(=O)(=O)CC2)C(C2CC2)N3S(=O)(=O)c2cccc(OC(F)(F)F)c2)c1 (centres unmarked) [Example 83, 3-{[(2-cyclopropyl-1′,1′-dioxido-1-{[3-(trifluoromethoxy)phenyl]sulfonyl}-1,2,2′,3′,5′,6′-hexahydrospiro[indole-3,4′-thiopyran]-5-yl)carbonyl]amino}benzoic acid]	140 nM
O=C(NCc1ncccc1C(F)(F)F)c1ccc2c(c1)C1(CCS(=O)(=O)CC1)C(C1CC1)N2S(=O)(=O)c1cccc(OC(F)(F)F)c1 (centres unmarked) [Example 84, 2-cyclopropyl-1-{[3-(trifluoromethoxy)phenyl]sulfonyl)-N-{[3-(trifluoromethyl)pyridin-2-yl]methyl}-1,2,2′,3′,5′,6′-hexahydrospiro[indole-3,4′-thiopyran]-5-carboxamide 1′,1′-dioxide]	309 nM
Cc1cncc(NC(=O)c2ccc3c(c2)C2(CCS(=O)(=O)CC2)C(C2CC2)N3S(=O)(=O)c2cccc(OC(F)(F)F)c2)c1 (centres unmarked) [Example 85, 2-cyclopropyl-N-(5-methylpyridin-3-yl)-1-{[3-(trifluoromethoxy)phenyl]sulfonyl}-1,2,2′,3′,5′,6′-hexahydrospiro[indole-3,4′-thiopyran]-5-carboxamide 1′,1′-dioxide]	804 nM
O=C(NCc1ccccc1Cl)c1ccc2c(c1)C1(CCS(=O)(=O)CC1)C(C1CC1)N2S(=O)(=O)c1cccc(OC(F)F)c1 (centres unmarked) [Example 86, N-(2-chlorobenzyl)-2-cyclopropyl-1-{[3-(difluoromethoxy)phenyl]sulfonyl}-1,2,2′,3′,5′,6′-hexahydrospiro[indole-3,4′-thiopyran]-5-carboxamide 1′,1′-dioxide]	196 nM
O=C(NCc1ncccc1C(F)(F)F)c1ccc2c(c1)C1(CCS(=O)(=O)CC1)C(C1CC1)N2S(=O)(=O)c1cccc(OC(F)F)c1 (centres unmarked) [Example 87, 2-cyclopropyl-1-{[3-(difluoromethoxy)phenyl]sulfonyl}-N-{[3-(trifluoromethyl)pyridin-2-yl]methyl}-1,2,2′,3′,5′,6′-hexahydrospiro[indole-3,4′-thiopyran]-5-carboxamide 1′,1′-dioxide]	143 nM
O=C(Nc1cncc(Cl)c1)c1ccc2c(c1)C1(CCS(=O)(=O)CC1)C(C1CC1)N2S(=O)(=O)c1cccc(OC(F)F)c1 (centres unmarked) [Example 88, N-(5-chloropyridin-3-yl)-2-cyclopropyl-1-{[3-(difluoromethoxy)phenyl]sulfonyl}-1,2,2′,3′,5′,6′-hexahydrospiro[indole-3,4′-thiopyran]-5-carboxamide 1′,1′-dioxide]	262 nM
COC(=O)c1cccc(NC(=O)c2ccc3c(c2)C2(CCS(=O)(=O)CC2)C(C2CC2)N3S(=O)(=O)c2cccc(OC(F)F)c2)c1 (centres unmarked) [Example 89, methyl 3-{[(2-cyclopropyl-1-{[3-(difluoromethoxy)phenyl]sulfonyl}-1′,1′-dioxido-1,2,2′,3′,5′,6′-hexahydrospiro[indole-3,4′-thiopyran]-5-yl)carbonyl]amino}benzoate]	134 nM
O=C(NCc1ccccc1C(F)F)c1ccc2c(c1)C1(CCS(=O)(=O)CC1)C(C1CC1)N2S(=O)(=O)c1ccc(OC(F)F)cc1 (centres unmarked) [Example 91, 2-cyclopropyl-1-{[4-(difluoromethoxy)phenyl]sulfonyl}-N-[2-(difluoromethyl)benzyl]-1,2,2′,3′,5′,6′-hexahydrospiro[indole-3,4′-thiopyran]-5-carboxamide 1′,1′-dioxide]	5.9 nM
O=C(NCc1ccccc1C(F)(F)F)c1ccc2c(c1)C1(CCS(=O)(=O)CC1)C(C1CC1)N2S(=O)(=O)c1ccc(OC(F)F)cc1 (centres unmarked) [Example 92, 2-cyclopropyl-1-{[4-(difluoromethoxy)phenyl]sulfonyl}-N-[2-(trifluoromethyl)benzyl]-1,2,2′,3′,5′,6′-hexahydrospiro[indole-3,4′-thiopyran]-5-carboxamide 1′,1′-dioxide]	31 nM
O=C(NCc1ncccc1C(F)(F)F)c1ccc2c(c1)C1(CCS(=O)(=O)CC1)C(C1CC1)N2S(=O)(=O)c1ccc(OC(F)F)cc1 (centres unmarked) [Example 93, 2-cyclopropyl-1-{[4-(difluoromethoxy)phenyl]sulfonyl}-N-{[3-(trifluoromethyl)pyridin-2-yl]methyl}-1,2,2′,3′,5′,6′-hexahydrospiro[indole-3,4′-thiopyran]-5-carboxamide 1′,1′-dioxide]	53 nM
NC(=O)c1ccc(S(=O)(=O)N2c3ccc(C(=O)NCc4ccccc4Cl)cc3C3(CCS(=O)(=O)CC3)C2C2CC2)cc1 (centres unmarked) [Example 94, 1-[(4-carbamoylphenyl)sulfonyl]-N-(2-chlorobenzyl)-2-cyclopropyl-1,2,2′,3′,5′,6′-hexahydrospiro[indole-3,4′-thiopyran]-5-carboxamide 1′,1′-dioxide]	222 nM
CN1CCCC1=NS(=O)(=O)c1cccc(NC(=O)c2ccc3c(c2)C2(CCS(=O)(=O)CC2)C(C2CC2)N3S(=O)(=O)c2ccc(C(N)=O)cc2)c1 (centres unmarked) [Example 95, 1-[(4-carbamoylphenyl)sulfonyl]-2-cyclopropyl-N-{3-[(1-methylpyrrolidin-2-ylidene)sulfamoyl]phenyl}-1,2,2′,3′,5′,6′-hexahydrospiro[indole-3,4′-thiopyran]-5-carboxamide 1′,1′-dioxide]	225 nM
